Results as given in US20250017834A1, “SUNSCREEN COMPOSITIONS COMPRISING IMINE ANALOGS OF A SUNSCREEN COMPRISING A KETONE” (Curie Co. Inc., priority 2020, published 2025).
One block for each compound: values may come before it.

Legend:
Assay type in all cases: physicochemical
[1] = UV/Vis spectral properties (UVA, UVB and visible absorption), Cary-50 spectrophotometer; details: for UV absorption properties compared to oxybenzone: 5 mM or 0.05 mM, FIG. 1; for Absorption spectra compared to oxybenzone: 5 mM (N-Boc-Imine-6 also 0.05 mM), FIG. 3
Description: Imine-1, Imine-2, and Imine-3 were synthesized, purified, and isolated (see above). All three compounds were separately dissolved in acetonitrile to a final concentration of 5 mM (FIG. 1) or 0.05 mM (FIG. 1, inset) and analyzed by UV/Vis (Cary-50 Spectrophotomer). The spectral properties were compared to oxybenzone in acetonitrile.
Carbamate-1, first described in U.S. Pat. No. 5,490,980A, was synthesized, purified, and isolated (see above). Carbamate-1 was dissolved in acetonitrile to a final concentration of 0.05 mM and analyzed by UV/Vis (Cary-50 Spectrophotomer). The spectral properties were compared to oxybenzone in acetonitrile at a final concentration of 0.05 mM.
Imine-4, Imine-5, and N-Boc-Imine-6 were synthesized, purified, and isolated (see above). All three compounds were separately dissolved in acetonitrile to a final concentration of 5 mM (FIG. 3) and analyzed by UV/Vis (Cary-50 Spectrophotomer). N-Boc-Imine-6 was diluted in acetonitrile to a final concentration of 0.05 mM (FIG. 3, inset) and analyzed by UV/Vis. […] Spectral properties were compared to oxybenzone in acetonitrile at the same concentration.
To understand the solution stability of the Boc-protected imines in protic solvent, N-Boc-Imine-6 was prepared in ethanol in the presence of catalytic glacial acetic acid. Briefly, to a solution of oxybenzone (0.10 g, 0.438 mmol, 1 eq) and N-Boc-1,6-hexanediamine (0.094 g, 0.43 mmol, 1 eq) in ethanol (0.3 mL) was added catalytic glacial acetic acid (1 μL). The reaction mixture was agitated at 900 rpm at 70° C. for 16 hr and monitored by LCMS. […] The reaction was then diluted in ethanol to final concentration of 0.04 mM and analyzed by UV/Vis spectroscopy.
N-Boc-Imine-8 and Imine-8 was synthesized, purified, and isolated (see above). N-Boc-Imine-8 and Imine-8 were dissolved in ethanol to a final concentration of 0.032 mM and 8 mM, respectively (FIG. 6) and analyzed by UV/Vis. (Cary-50 Spectrophotomer). Spectral properties were compared to sulisobenzone in ethanol at similar concentration.
Imine-10 was first dissolved in methyl tert-butyl ether and then diluted in ethanol to a final concentration of 5 mM and 0.04 mM (FIG. 7) and analyzed by UV/Vis. (Cary-50 Spectrophotomer). Spectral properties were compared to oxybenzone at similar concentration.

[2] = Solubility in acetonitrile
[3] = Solution stability of Boc-protected imine in protic solvent (ethanol), LCMS and UV/Vis; details: 70° C., over 24 hours, catalytic glacial acetic acid
Description: To understand the solution stability of the Boc-protected imines in protic solvent, N-Boc-Imine-6 was prepared in ethanol in the presence of catalytic glacial acetic acid. Briefly, to a solution of oxybenzone (0.10 g, 0.438 mmol, 1 eq) and N-Boc-1,6-hexanediamine (0.094 g, 0.43 mmol, 1 eq) in ethanol (0.3 mL) was added catalytic glacial acetic acid (1 μL). The reaction mixture was agitated at 900 rpm at 70° C. for 16 hr and monitored by LCMS. Full reaction of the starting material to a single product peak was observed by LCMS indicating completion. The reaction was then diluted in ethanol to final concentration of 0.04 mM and analyzed by UV/Vis spectroscopy. […] Additionally, the Boc-protecting group remained intact throughout the reaction and UV/Vis analysis.

Compound: COc1ccc(/C(=N/c2ccccc2)c2ccccc2)c(O)c1 [Imine-2]
UV absorption properties compared to oxybenzone ([1]; acetonitrile): improved both UVA-1, UVA-2, and UVB absorption properties

Compound: CCCCCCOC(=O)c1ccccc1/C(=N/CCCCCCN)c1cccc(N(CC)CC)c1O [Imine-9]
Absorbance spectra of DHHB-derived imines ([1]; data not shown): red shift of the absorbance spectra, which extends to the visible region

Compound: COc1ccc(/C(=N/C(CCC(N)=O)C(=O)O)c2ccccc2)c(O)c1 (centres unmarked) [Imine-5]
Absorption spectra compared to oxybenzone ([1]; acetonitrile): encompassed the UVA-1, UVA-2, and UVB regions as well as the visible region of the spectrum (greater than 400 nm)

Solubility in acetonitrile [2]: poor solubility
Compound: COc1ccc(/C(=N/CCCCCCN)c2ccccc2)c(O)c1 [Imine-6]

Solution stability without reversion to starting ketone and amine [3]: stable
Compound: COc1ccc(/C(=N/CCCCCCNC(=O)OC(C)(C)C)c2ccccc2)c(O)c1 [N-Boc-Imine-6]
Absorption spectra compared to oxybenzone ([1]; acetonitrile): encompassed the UVA-1, UVA-2, and UVB regions as well as the visible region of the spectrum (greater than 400 nm)
Absorption spectrum in ethanol ([1]; ethanol, 0.04 mM, reaction mixture diluted, FIG. 4): encompasses the UVA and UVB regions as well as the visible region of the spectrum (greater than 400 nm)

Compound: COc1cc(O)c(/C(=N\CCCCCCN)c2ccccc2)cc1S(=O)(=O)O [Imine-8]
Absorbance compared to sulisobenzone ([1]; ethanol, N-Boc-Imine-8 0.032 mM, Imine-8 8 mM, FIG. 6): retained absorbance in the UVB region and extended absorbance into the UVA region

Compound: COc1ccc(/C(=N/Cc2ccccc2)c2ccccc2)c(O)c1 [Imine-1]
UV absorption properties compared to oxybenzone ([1]; acetonitrile): improved both UVA-1, UVA-2, and UVB absorption properties

Compound: COc1ccc(C(=O)c2ccccc2)c(OC(=O)NCCCCCCNC(=O)OC(C)(C)C)c1 [Carbamate-1, reference compound]
UV filter properties compared to oxybenzone ([1]; acetonitrile, 0.05 mM, FIG. 2): UVA blocking was reduced

Compound: COc1ccc(/C(=N/O)c2ccccc2)c(O)c1 [Imine-3]
UV absorption properties compared to oxybenzone ([1]; acetonitrile): loss in the UVA blocking and reduction in UVB blocking
